From patent CN108159055A, “治疗乳腺癌的长效递药系统、其制备方法及应用” (XI'AN LIBANG MEDICINE SCIENCE AND TECHNOLOGY Co Ltd, priority 2018, dated 2018) come the findings set out here.

This data set in a line: Miscibility of solvents with oils (Test Example 2 part 1, Table 2). Type of data set: physicochemical. Conditions: no phospholipid.

Consider `CC(=O)OCC(COC(C)=O)OC(C)=O.CC(=O)OCC(COC(C)=O)OC(C)=O` [三乙酸甘油酯], for which the miscibility entry runs as follows: (with benzyl alcohol) “混溶”; (with benzyl benzoate) “混溶”; (with ethanol) “不混溶”; (with ethyl lactate) “不混溶”.
